Test results taken from patent US9446019B2, “Sparstolonin B based pharmaceutical agent for neuroblastoma treatment” (University of South Carolina, priority 2013, dated 2016).

Experiments:
IMR-32 cells = experiment: Cell cycle analysis by flow cytometry (propidium iodide); type: cell-based, human; details: SsnB 10 μM, 2 days; control=19.25%
Protocol: (§1) The cell cycle progression was determined by flow cytometer analysis. Neuroblastoma cells were treated with SsnB or DMSO in DMEM with 10% FBS. Cells were collected after trypsinization with trypsin-EDTA solution (Atlanta Biologicals) and washed with 1× phosphate buffered saline (PBS). Approximately 1×10^6 cells were suspended in 300 μl of ice-cold 1×PBS, fixed by adding 700 μl of chilled absolute ethanol (to make final ethanol concentration 70%) drop wise and incubated for overnight at −20° C. Cells were pelleted at 1000×rpm for 5 min at 4° C., washed with 1×PBS for 3 times and stained with propidium iodide (Sigma-Aldrich, St. Louis, Mo.) by adding 1 ml of propidium iodide staining solution (containing 20 μg/ml propidium iodide and 10 μg/ml DNase-free RNase A in 0.1% Triton X-100/PBS) for 1 h on ice in dark. Samples were subjected to fluorescence-activated cell sorting analyses utilizing Beckman Coulter flow cytometer (Beckman Coulter, Indianapolis, Ind.). A minimum of 10,000 events were analyzed in each experiment.
(§2) To test whether SsnB-induced cell growth inhibition occurs through cell cycle arrest, cell cycle distribution was analyzed by flow cytometry after DNA staining with propidium iodide.

NGP cells = experiment: as above; type: cell-based, human; details: SsnB 10 μM, 3 days; control=17.87%
Protocol: as §1, §2

SH-SY5Y cells = experiment: as above; type: cell-based, human; details: SsnB 10 μM, 2 days; control=14.33%
Protocol: as §1, §2

SK-N-BE(2) cells = experiment: as above; type: cell-based, human; details: SsnB 10 μM, 4 days; control=22.63%
Protocol: as §1, §2

[1] = test system: human neuroblastoma cell lines (SH-SY5Y, SKNF-1, NGP, IMR-32 and SK-N-BE(2) cells); experiment: Cell morphology by phase contrast microscopy; type: cell-based
Source text: Human neuroblastoma cell lines (SH-SY5Y, IMR-32, SK-N-BE(2) and SKNF-1 cells) were obtained from The American Type Culture Collection (ATCC; Manassas, Va.), and NGP cells were kind gift from Garrett M. Brodeur (The Children's Hospital of Philadelphia, Philadelphia, Pa.). All cell lines were maintained in complete Dulbecco's Modified Eagle's Medium (DMEM) supplemented with 10% fetal bovine serum (FBS; Atlanta Biologicals, Lawrenceville, Ga.) and 1× antibiotic-antimycotic solution (containing 100 U/ml penicillin, 100 μg/ml streptomycin and 0.25 μg/ml amphotericin B), and grown at 37° C. in a humidified incubator with 5% CO2. Stock solution of SsnB was prepared in dimethyl sulfoxide (DMSO). Cells treated with different concentrations of SsnB in DMEM with 10% FBS were grown for subsequent days. Cells treated with equal volume of DMSO were used as control.
To test the inhibitory effects of SsnB on neuroblastoma cell survival, human neuroblastoma cell lines of different genetic background (SH-SY5Y, SKNF-1, NGP, IMR-32 and SK-N-BE(2) cells) were treated with 1 μM, 5 μM, 10 μM or 20 μM concentration of SsnB under in vitro conditions. Following SsnB treatments, neuroblastoma cell were grown and were photographed under light microscope to evaluate the cell morphology.

SH-SY5Y tumors = type: in vivo
Protocol: Six-week-old female homozygous athymic nude mice (nu/nu; strain-Crl:NU-Foxn1nu) were purchased from Charles River Laboratories (Wilmington, Mass.), and housed in the University of South Carolina Animal Research Facility. All animal experiments were carried out in compliance with the National Institute of Health (NIH) guidelines and were approved by the Institutional Animal Care and Use Committee (IACUC) of the University of South Carolina. The animals were maintained at 25° C. with a 12-h light/12-h dark cycle in laminar flow cabinets under specific pathogen-free conditions and given sterile water and food ad libitum.
A neuroblastoma xenograft mice model using SH-SY5Y cells was used. To develop localized subcutaneous tumors, 2×10^7 SH-SY5Y cells were mixed 1:1 with matrigel (BD biosciences, San Jose, Calif.) to make 0.1 ml total volume, and cells were injected subcutaneously into the flank region of mice using sterile 27-gauge needle. The animal weight and general appearance were recorded regularly throughout the experiments. On every third day, tumor size was measured with calipers and tumor volume was calculated using the ellipsoid formula (length×width×height×0.5).
Tumor-bearing mice were divided into two groups—(i) control without SsnB treatment, n=4; and (ii) experimental with SsnB treatment (10 mg/kg body weight per mice), n=4. […]
Paraformaldehyde-fixed paraffin-embedded tumor sections (5 μm thick) were deparaffinized in xylene and rehydrated with sequential immersion in graded ethanol (100%, 95%, 85%, 70% and 50%). […] Primary antibodies were detected with secondary antibodies conjugated with fluorescein isothiocyanate (FITC) (1:4000 dilution in 5% IgG-free BSA/PBS) for 2 h at room temperature. After washing with 1×PBS for 4 times (10 min for each washing), sections were mounted with antifade Vectashield mounting media (Vector Laboratories, Burlingame, Calif.), and signals were visualized under Nikon-E600 fluorescence microscope (Nikon, Tokyo, Japan). […]

Question: `O=c1occ2c3c(ccc(O)c13)Oc1ccc(O)cc1-2` [SsnB, 8,5′-dihydroxy-4-phenyl-5,2′-oxidoisocoumarin] was tested. Which G2/M phase cells (IMR-32 cells) did it give?
Answer: 23.45%

Question: What about the G2/M phase cells (NGP cells) of the same compound?
Answer: 26.98%

Question: And the G2/M phase cells (SH-SY5Y cells)?
Answer: 23.98%

Question: And the G2/M phase cells (SK-N-BE(2) cells)?
Answer: 27.15%

Question: What about the “cell morphology (rounded cells, indication of cell death) vs DMSO” value ([1]; SsnB 10 μM and above, 2, 3 or 4 days depending on line) of the same compound?
Answer: changed the morphology

Question: And the morphological changes ([1]; SsnB 1 or 5 μM, any cell line tested)?
Answer: not significant

Question: And the average tumor volume (SH-SY5Y tumors; 10 mg/kg body weight daily intraperitoneal, 15 days, control 883.75±68.23 mm^3)?
Answer: 146.5±14.08 mm^3

Question: What about the “cleaved caspase-3 signals in tumors” value (SH-SY5Y tumors; 10 mg/kg, immunohistochemistry, p<0.05 vs control) of the same compound?
Answer: significantly detected

Question: What about the “TUNEL positive cells in tumors” value (SH-SY5Y tumors; 10 mg/kg, p<0.05 vs control) of the same compound?
Answer: increased the number of TUNEL positive cells
